PubChem BioAssay AID2060609 (Molecular Pharmacology Branch, DTP, NCI, 2025)

System: 855422-203-R-J1-PDC complex spheroids, viability
Assay: Anticancer human tumor 855422-203-R-J1-PDC patient-derived bladder carcinoma cell line growth inhibition [CLK]
Settings: for IC50: curve of first compound; for viability, T/C: stronger effect = lower value
How it was run: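 Multi-cell-type spheroids combined patient-derived tumor cells with HUVEC endothelial cells and human mesenchymal stem cells. Paired agents were dosed in half-log steps down from about clinical Cmax, or from 10 microM where Cmax was unknown.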
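Further: spheroids exposed to drugs for seven days before readout.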
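Wherever viability, T/C is given: 100% = DMSO vehicle control wells.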

C=CC(=O)Nc1cc(Nc2nccc(-c3cn(C)c4ccccc34)n2)c(OC)cc1N(C)CCN(C)C + CN1CCN(c2cc(C(=O)Nc3cc4cc(-c5cnn(C)c5)ccc4cn3)ccn2)CC1
IC50 (second compound 0.0316 µM): > 300 nM | IC50 (second compound 0.1 µM): > 300 nM | IC50 (second compound 0.316 µM): < 0.949 nM | IC50 (second compound 1 µM): < 0.949 nM | IC50 (second compound 3.16 µM): < 0.949 nM | IC50 (second compound 10 µM): < 0.949 nM | viability, T/C (second compound 0.0316 µM, first compound 0.000949 µM): 104% | viability, T/C (second compound 0.0316 µM, first compound 0.003 µM): 88.3% | viability, T/C (second compound 0.0316 µM, first compound 0.00949 µM): 112% | viability, T/C (second compound 0.0316 µM, first compound 0.03 µM): 102% | viability, T/C (second compound 0.0316 µM, first compound 0.0949 µM): 97.6% | viability, T/C (second compound 0.0316 µM, first compound 0.3 µM): 91.4% | viability, T/C (second compound 0.1 µM, first compound 0.000949 µM): 79.1% | viability, T/C (second compound 0.1 µM, first compound 0.003 µM): 80.4% | viability, T/C (second compound 0.1 µM, first compound 0.00949 µM): 85.8% | viability, T/C (second compound 0.1 µM, first compound 0.03 µM): 91.7% | viability, T/C (second compound 0.1 µM, first compound 0.0949 µM): 74.8% | viability, T/C (second compound 0.1 µM, first compound 0.3 µM): 64.5% | viability, T/C (second compound 0.316 µM, first compound 0.000949 µM): 7.04% | viability, T/C (second compound 0.316 µM, first compound 0.003 µM): 9.27% | viability, T/C (second compound 0.316 µM, first compound 0.00949 µM): 8.35% | viability, T/C (second compound 0.316 µM, first compound 0.03 µM): 11.4% | viability, T/C (second compound 0.316 µM, first compound 0.0949 µM): 8.34% | viability, T/C (second compound 0.316 µM, first compound 0.3 µM): 7.28% | viability, T/C (second compound 1 µM, first compound 0.000949 µM): 0.18% | viability, T/C (second compound 1 µM, first compound 0.003 µM): 0.31% | viability, T/C (second compound 1 µM, first compound 0.00949 µM): 0.54% | viability, T/C (second compound 1 µM, first compound 0.03 µM): 0.25% | viability, T/C (second compound 1 µM, first compound 0.0949 µM): 1.14% | viability, T/C (second compound 1 µM, first compound 0.3 µM): 0.46% | viability, T/C (second compound 3.16 µM, first compound 0.000949 µM): 0.7% | viability, T/C (second compound 3.16 µM, first compound 0.003 µM): 0.52% | viability, T/C (second compound 3.16 µM, first compound 0.00949 µM): 0.64% | viability, T/C (second compound 3.16 µM, first compound 0.03 µM): 0.46% | viability, T/C (second compound 3.16 µM, first compound 0.0949 µM): 0.68% | viability, T/C (second compound 3.16 µM, first compound 0.3 µM): 0.93% | viability, T/C (second compound 10 µM, first compound 0.000949 µM): 0.4% | viability, T/C (second compound 10 µM, first compound 0.003 µM): 1.47% | viability, T/C (second compound 10 µM, first compound 0.00949 µM): 0.52% | viability, T/C (second compound 10 µM, first compound 0.03 µM): 0.85% | viability, T/C (second compound 10 µM, first compound 0.0949 µM): 0.58% | viability, T/C (second compound 10 µM, first compound 0.3 µM): 0.28%

CC1(C)CCC(CN2CCN(c3ccc(C(=O)NS(=O)(=O)c4ccc(NCC5CCOCC5)c([N+](=O)[O-])c4)c(Oc4cnc5[nH]ccc5c4)c3)CC2)=C(c2ccc(Cl)cc2)C1 + CN1CCN(c2cc(C(=O)Nc3cc4cc(-c5cnn(C)c5)ccc4cn3)ccn2)CC1
IC50 (second compound 0.0316 µM): 6060 nM | IC50 (second compound 0.1 µM): 5320 nM | IC50 (second compound 0.316 µM): < 31.6 nM | IC50 (second compound 1 µM): < 31.6 nM | IC50 (second compound 3.16 µM): < 31.6 nM | IC50 (second compound 10 µM): < 31.6 nM | viability, T/C (second compound 0.0316 µM, first compound 0.0316 µM): 97.3% | viability, T/C (second compound 0.0316 µM, first compound 0.1 µM): 96.2% | viability, T/C (second compound 0.0316 µM, first compound 0.316 µM): 115% | viability, T/C (second compound 0.0316 µM, first compound 1 µM): 116% | viability, T/C (second compound 0.0316 µM, first compound 3.16 µM): 137% | viability, T/C (second compound 0.0316 µM, first compound 10 µM): 1.97% | viability, T/C (second compound 0.1 µM, first compound 0.0316 µM): 85.1% | viability, T/C (second compound 0.1 µM, first compound 0.1 µM): 81.9% | viability, T/C (second compound 0.1 µM, first compound 0.316 µM): 104% | viability, T/C (second compound 0.1 µM, first compound 1 µM): 88.2% | viability, T/C (second compound 0.1 µM, first compound 3.16 µM): 93% | viability, T/C (second compound 0.1 µM, first compound 10 µM): 1.08% | viability, T/C (second compound 0.316 µM, first compound 0.0316 µM): 10.7% | viability, T/C (second compound 0.316 µM, first compound 0.1 µM): 11.8% | viability, T/C (second compound 0.316 µM, first compound 0.316 µM): 8.68% | viability, T/C (second compound 0.316 µM, first compound 1 µM): 10.2% | viability, T/C (second compound 0.316 µM, first compound 3.16 µM): 10.3% | viability, T/C (second compound 0.316 µM, first compound 10 µM): 0.47% | viability, T/C (second compound 1 µM, first compound 0.0316 µM): 0.26% | viability, T/C (second compound 1 µM, first compound 0.1 µM): 0.89% | viability, T/C (second compound 1 µM, first compound 0.316 µM): 0.24% | viability, T/C (second compound 1 µM, first compound 1 µM): 0.46% | viability, T/C (second compound 1 µM, first compound 3.16 µM): 0.51% | viability, T/C (second compound 1 µM, first compound 10 µM): 0.11% | viability, T/C (second compound 3.16 µM, first compound 0.0316 µM): 0.63% | viability, T/C (second compound 3.16 µM, first compound 0.1 µM): 2.77% | viability, T/C (second compound 3.16 µM, first compound 0.316 µM): 0.71% | viability, T/C (second compound 3.16 µM, first compound 1 µM): 0.87% | viability, T/C (second compound 3.16 µM, first compound 3.16 µM): 1.82% | viability, T/C (second compound 3.16 µM, first compound 10 µM): 1.58% | viability, T/C (second compound 10 µM, first compound 0.0316 µM): 0.52% | viability, T/C (second compound 10 µM, first compound 0.1 µM): 0.31% | viability, T/C (second compound 10 µM, first compound 0.316 µM): 0.36% | viability, T/C (second compound 10 µM, first compound 1 µM): 0.45% | viability, T/C (second compound 10 µM, first compound 3.16 µM): 0.29% | viability, T/C (second compound 10 µM, first compound 10 µM): 0.25%
